The values below come from PMC11354720, “Assessing the Efficacy of Protease Inactivation for the Preservation of Bioactive Amphibian Skin Peptides” (International Journal of Molecular Sciences, 2024).

Like-named read-outs stand apart in the source and are kept apart here. Where a SMILES comes first, the peptide text is derived from it. Bridges are numbered along the chain shown (N, C = ends). Where no end group is shown, it is not given here.

This data set has as its system proteases in Pelophylax esculentus skin secretion. Format: in vitro ADME. The settings on record: for Proteoforms, %: sum of all proteolytic forms; for Proteoforms, % / Intact, % / Oxidized, %: LC-HRMS; for Intact, %: one frog per sample; for Oxidized, %: Met oxidized to methionine sulfoxide. As to the method:
The inhibitory capacity of methanol and hydrochloric and formic acids, as well as PMSF at the minimum and maximum concentrations traditionally used in proteomics (0.1–1.0 mM), was compared via mass spectrometric monitoring of intact and proteolytic forms of nine peptides in five samples of Pelophylax esculentus secretions (samples 1–5).
Table 2 presents quantitative data for each of the nine peptides in Table 1, showing the percentage ratio of the intact (original) form of the peptide, the oxidized form (in the presence of methionine in the sequence), and the resulting proteolytic forms: products of the action of the remaining non-deactivated proteases. The full list of the detected proteolytic forms is included into the supporting material. The presence of one or another proteolytic form for each peptide in each of the five samples was determined by observing the coincidence of their exact experimental mass with the calculated one (within 0.5 ppm according to the mass spectra), as well as the coincidence of their sequences (tandem mass spectra data).
When calculating the data in Table 2, the total amount of intensities of all its formed forms in the mass spectra was taken as 100% for each peptide. To calculate the content in each of the samples of the intact, oxidized (if any), or proteolytic form of each of the nine peptides, the sum of the intensities of the chromatographic peaks of its multicharged ions, exactly corresponding to the values of the polyprotonated molecules of each of the forms, was used. The line “Proteoforms, %” took into account the sum of all proteolytic forms of a particular peptide for each of the five samples. The values of the intensities of each of the forms (intact, oxidized, and proteolytic) obtained in this way were summed up and, in relation to their resulting sum, the percentage content of each of the three forms in Table 2 was calculated for each of the five samples with different reagents.
The skin secretions of five sexually mature female specimens of the same size of Pelophylax esculentus, caught within the Moscow city limits, were obtained via mild electro-stimulation of the skin glands using a laboratory electro-stimulator [15, 51]. The “milking” parameters were as follows: signal frequency 50 Hz, pulse duration 3 ms, voltage 12 V, total stimulation time 40 s. The secretion was washed off with deionized water into separate containers, to which the following reagents were immediately added individually: —HCl to final concentration 1% (sample 1); —CH3OH (sample 2); —HCOOH to final concentration 1% (sample 3); —0.1 mM PMSF (sample 4 in DMSO); —1.0 mM PMSF (sample 5 in DMSO). All samples were centrifuged for 15 min at 3 000 rpm, filtered through removable membrane filters (PTFE 0.45 μm), and lyophilized. The storage temperature was −26 °C. All five individuals were immediately returned to their place of capture after the procedure.
Mass spectra were obtained on an Orbitrap ID-X high-resolution mass spectrometer (Thermo Scientific, Waltham, MA, USA) coupled to an LC-30 Nexera liquid chromatograph (Shimadzu, Kyoto, Japan) in LC-HRMS mode. An HPLC system consisted of two LC-30AD chromatographic pumps, a DGU-5A vacuum degasser, a SIL-30AC autosampler, an STO-20A column thermostat, and a CBM-20A system controller. The components of the secretions were separated on an XDB-C18 column (Agilent, Santa Clara, CA, USA) with a length of 100 mm and phase particle size of 1.8 μm. Gradient chromatography was performed using the following solutions: A—0.1% formic acid solution in deionized water (Milli-Q, Millipore, Molsheim, France); B—0.1% formic acid solution in acetonitrile containing 2% deionized water. All lyophilized samples were dissolved in phase B prior to the analysis. Injection volume was set to 0.1 µL. […]

Setting [1] is: sample 1: HCl final concentration 1%, all forms = 100%.
The mark [2] stands for this setting: sample 1: aqueous P. esculentus skin secretion, HCl added to final concentration 1%, sum of intensities of all forms of the peptide = 100%.
Setting [3] is: sample 2: CH3OH, all forms = 100%.
Where [4] appears, read: sample 2: aqueous P. esculentus skin secretion with CH3OH added, all forms = 100%.
Where [5] appears, read: sample 3: HCOOH final concentration 1%, all forms = 100%.
Where [6] appears, read: sample 3: aqueous P. esculentus skin secretion, HCOOH added to final concentration 1%, all forms = 100%.
[7] abbreviates: sample 4: PMSF 0.1 mM (in DMSO), all forms = 100%.
[8] abbreviates: sample 4: aqueous P. esculentus skin secretion, PMSF 0.1 mM (in DMSO), all forms = 100%.
The mark [9] stands for this setting: sample 5: PMSF 1.0 mM (in DMSO), all forms = 100%.
[10] abbreviates: sample 5: aqueous P. esculentus skin secretion, PMSF 1.0 mM (in DMSO), all forms = 100%.

Regarding “GXLDSLKNLAKNAAQILLNKASCKLSGQC-OH (disulfide) [Brev 2Rd, Brevinin 2Rd, natural disulfide skin peptide of Pelophylax esculentus, brevinin 2 family, 29 aa]”, the “Proteoforms, %” value is listed as 0.39% under setting [1]; “did not degrade” under setting [3]; 2.23% under setting [5]; 98.45% under setting [7]; 79.16% under setting [9]. The “Intact, %” value under setting [2] worked out at 99.61%; the “Intact, %” value under setting [4] is recorded as 100%; the “Intact, %” value under setting [6] amounted to 97.77%; the “Intact, %” value under setting [8] is recorded as 1.55%; the “Intact, %” value under setting [10] was determined as 20.84%.
On to `CC[C@H](C)[C@H](NC(=O)[C@@H](N)C(C)C)C(=O)N1CCC[C@H]1C(=O)N[C@@H](Cc1ccccc1)C(=O)N[C@H](C(=O)N[C@@H](C)C(=O)N[C@@H](CO)C(=O)N[C@H](C(=O)N[C@@H](C)C(=O)N[C@@H](C)C(=O)N[C@@H](CCC(=O)O)C(=O)N[C@@H](CCSC)C(=O)N[C@@H](CCSC)C(=O)N[C@@H](CCC(N)=O)C(=O)N[C@@H](Cc1c[nH]cn1)C(=O)N[C@H](C(=O)N[C@@H](Cc1ccc(O)cc1)C(=O)N[C@H]1CSSC[C@@H](C(=O)O)NC(=O)[C@H](CCCNC(=N)N)NC(=O)[C@H](CCCNC(=N)N)NC(=O)[C@H](CO)NC(=O)[C@H](C)NC(=O)[C@H](C)NC1=O)C(C)C)C(C)C)C(C)C` [Brev 1Ra, Brevinin 1Ra] (H-VIPFVASVAAEMMQHVYCAASRRC-OH; disulfide 18-24), for which the “Proteoforms, %” value under setting [1] is recorded as 0.75%; the “Proteoforms, %” value under setting [3] is on record as 0.60%; the “Proteoforms, %” value under setting [5] turned out to be 0.30%; the “Proteoforms, %” value under setting [9] stood at 0.53%. Further, the “Intact, %” value under setting [2] worked out at 93.51%; the “Intact, %” value under setting [4] is 98.27%; the “Intact, %” value under setting [6] was 99.51%; the “Intact, %” value under setting [8] is given as 77.80%; the “Intact, %” value under setting [10] was determined as 99.47%.
As to “GXFSKXAGKKXKNLXISGXKSVGKEVGMDVVRTGIDIAGCKIKGEC-OH (disulfide) [Escul 1R, Esculentin 1R, natural disulfide skin peptide of Pelophylax esculentus, esculentin 1 family, 46 aa]”, the “Oxidized, %” value under setting [1] was 7.45% and the “Oxidized, %” value under setting [7] was 0.25%. Besides, the “Proteoforms, %” value under setting [1] is recorded as 27.69%; the “Proteoforms, %” value under setting [3] is 22.15%; the “Proteoforms, %” value under setting [5] turned out to be 15.59%; the “Proteoforms, %” value under setting [7] came to 97.33%; the “Proteoforms, %” value under setting [9] is 99.26%. In addition, the “Intact, %” value under setting [2] came to 64.86%; the “Intact, %” value under setting [4] was 77.85%; the “Intact, %” value under setting [6] is 84.41%; the “Intact, %” value under setting [8] turned out to be 2.42%; the “Intact, %” value under setting [10] turned out to be 0.74%.
For the molecule “GIFSKLGRKKIKNLLISGLKNVGKEVGMDVVRTGIDIAGCKIKGEC (disulfide 40-46) [Escul 1, Esculentin 1]”, the “Proteoforms, %” value is 51.77% under setting [1]; 20.01% under setting [3]; 16.99% under setting [5]; 94.40% under setting [7]; 91.90% under setting [9]. The “Intact, %” value came to 38.61% under setting [2]; 79.99% under setting [4]; 72.22% under setting [6]; 3.32% under setting [8]; 8.10% under setting [10].
For “FFPAFLKVAAKVVPSXXCSITKKC-OH (disulfide) [Brev 1LE, Brevinin 1LE, natural disulfide skin peptide of Pelophylax esculentus, brevinin 1 family, 24 aa]”, the “Proteoforms, %” value is listed as “not a single proteolytic fragment was formed” under setting [1]; “not a single proteolytic fragment was formed” under setting [3]; 1.63% under setting [5]; 92.73% under setting [7]; 89.74% under setting [9]. In addition, the “Intact, %” value is 100% under setting [2]; 100% under setting [4]; 98.37% under setting [6]; 7.27% under setting [8]; 10.26% under setting [10].
For `CC[C@H](C)[C@H](NC(=O)[C@H](CC(N)=O)NC(=O)[C@@H](NC(=O)[C@H](C)N)C(C)C)C(=O)N1CCC[C@H]1C(=O)N[C@@H](Cc1ccccc1)C(=O)N[C@@H](CCCCN)C(=O)N[C@H](C(=O)N[C@@H](CCCCN)C(=O)N[C@@H](Cc1ccccc1)C(=O)N[C@@H](CCCNC(=N)N)C(=O)N[C@H]1CSSC[C@@H](C(=O)O)NC(=O)[C@H](Cc2ccccc2)NC(=O)[C@H](C)NC(=O)[C@H](C)NC(=O)[C@H](CCCCN)NC1=O)C(C)C` [Ranat 2R, Ranatuerin 2R] (H-AVNIPFKVKFRCKAAFC-OH; disulfide 12-17), the “Proteoforms, %” value under setting [1] worked out at 14.79%; the “Proteoforms, %” value under setting [3] is reported as “proteolytic fragments were not recorded”; the “Proteoforms, %” value under setting [5] is on record as 34.99%; the “Proteoforms, %” value under setting [7] is on record as “proteolytic fragments were not recorded”; the “Proteoforms, %” value under setting [9] is recorded as “proteolytic fragments were not recorded”. The “Intact, %” value worked out at 85.21% under setting [2], 100% under setting [4], 65.01% under setting [6] and 100% under setting [10].
On to “GXLSTLKNVAKTAGKGALQSLLNAASCKLSGQC-OH (disulfide) [Brev 2L, Brevinin 2L, natural disulfide skin peptide of Pelophylax esculentus, brevinin 2 family, 33 aa]”, for which the “Proteoforms, %” value by setting is: under setting [1], 1.21%; under setting [3], 4.66%; under setting [5], 4.74%; under setting [7], 99.64%; under setting [9], 80.51%. Also, the “Intact, %” value came out at 98.79% under setting [2]; 95.34% under setting [4]; 95.26% under setting [6]; 0.36% under setting [8]; 19.49% under setting [10].
As for `CO` [Methanol, reference compound], the “Efficiency of the reagent in deactivating proteases in amphibian skin secretions” value (comparison of HCl 1%, CH3OH, HCOOH 1%, PMSF 0.1 and 1.0 mM by preservation of nine intact peptides) is “most efficient”.
Consider “GXLDSLKNFAKDAAGILLKKASCKLSGQC-OH (disulfide) [Brev 2Ra, Brevinin 2Ra, natural disulfide skin peptide of Pelophylax esculentus, brevinin 2 family, 29 aa]”, for which the “Proteoforms, %” value reads like this: under setting [1], 1.02%; under setting [3], “did not degrade”; under setting [5], 1.30%; under setting [7], 88.21%; under setting [9], 14.01%. Besides, the “Intact, %” value by setting is: under setting [2], 98.98%; under setting [4], 100%; under setting [6], 98.70%; under setting [8], 11.80%; under setting [10], 85.99%.
